Test results as given in patent US9192161B2, “Fungicidal combinations comprising a dithiino-tetracarboxamide fungicide” (BAYER INTELLECTUAL PROPERTY GMBH, priority 2011, dated 2015).

System: Venturia inaequalis
Assay: Venturia test (apples)/preventive
Type: in vivo, Venturia inaequalis on apples
Settings: preventive spray on young apple plants, evaluated 10 days after inoculation
Procedure: Venturia Test (Apples)/Preventive
• Solvent: 24.5 parts by weight of acetone • 24.5 parts by weight of dimethylacetamide • Emulsifier: 1 part by weight of alkylaryl polyglycol ether
To produce a suitable preparation of active compound, 1 part by weight of active compound is mixed with the stated amounts of solvent and emulsifier, and the concentrate is diluted with water to the desired concentration. To test for preventive activity, young plants are sprayed with the preparation of active compound at the stated rate of application. After the spray coating has dried on, the plants are inoculated with an aqueous conidia suspension of the causal agent of apple scab (Venturia inaequalis) and then remain for 1 day in an incubation cabinet at approximately 20° C. and a relative atmospheric humidity of 100%. The plants are then placed in a greenhouse at approximately 21° C. and a relative atmospheric humidity of approximately 90%. The test is evaluated 10 days after the inoculation. 0% means an efficacy which corresponds to that of the untreated control, while an efficacy of 100% means that no disease is observed.

| Compound | Efficacy in % found (0.4 ppm a.i.) [%] | Efficacy in % found (20 ppm a.i.) [%] | Efficacy in % found (40 ppm a.i.) [%] |
| --- | --- | --- | --- |
| COC(c1ccc(Cl)cc1Cl)C(C)NC(=O)c1cn(C)nc1C(F)F (stereo not drawn) [(10), 3-(difluoromethyl)-1-methyl-1H-pyrazole-4-carboxylic acid [2-(2,4-dichlorophenyl)-2-methoxy-1-methyl-ethyl]-amide] | 18 |  |  |
| Cn1c(=O)c2sc3c(=O)n(C)c(=O)c3sc2c1=O [(I-1), 2,6-dimethyl-1H,5H-[1,4]dithiino[2,3-c:5,6-c′]dipyrrole-1,3,5,7(2H,6H)-tetrone] |  | 46 | 65 |
